Data from ChEMBL document CHEMBL1201862, “PubChem BioAssay data set” (2004).
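Test compounds were applied to cells in 96-well plates for 48 hours at 5 doses. The concentration for 50% growth inhibition is given as GI50.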 Activity calls are given as the source filed them. Cut-off read from the data, not from the text of the source: active = GI50 up to about 1.1 µM and inactive = higher.

How the values were obtained:
Assay in all cases: NCI-60 cell line screen, 48 h
[1] = tested on: A549
[2] = tested on: COLO 205
[3] = tested on: HCT-116
[4] = tested on: HL-60
[5] = tested on: HOP-62
[6] = tested on: HT-29
[7] = tested on: K562
[8] = tested on: KM12
[9] = tested on: MOLT-4
[10] = tested on: Malme-3M
[11] = tested on: NCI-H460
[12] = tested on: OVCAR-4
[13] = tested on: OVCAR-5
[14] = tested on: RPMI-8226
[15] = tested on: SF-268
[16] = tested on: SF-295
[17] = tested on: SN12C
[18] = tested on: SNB-19
[19] = tested on: UACC-62
[20] = tested on: UO-31

| SMILES | GI50 [1] | GI50 [2] | GI50 [3] | GI50 [4] | GI50 [5] | GI50 [6] | GI50 [7] | GI50 [8] | GI50 [9] | GI50 [10] | GI50 [11] | GI50 [12] | GI50 [13] | GI50 [14] | GI50 [15] | GI50 [16] | GI50 [17] | GI50 [18] | GI50 [19] | GI50 [20] |
| --- | --- | --- | --- | --- | --- | --- | --- | --- | --- | --- | --- | --- | --- | --- | --- | --- | --- | --- | --- | --- |
| N#CC1=C(O)NC(O)=C(C#N)C1c1c(Cl)cccc1Cl | 27.3 µM (inactive) | 37.1 µM (inactive) | 29 µM (inactive) | 81.5 µM (inactive) | 27.7 µM (inactive) | 39.4 µM (inactive) | > 100 µM (inactive) | 22.1 µM (inactive) | > 100 µM (inactive) | 23.1 µM (inactive) | 20.9 µM (inactive) | 67.8 µM (inactive) | 33.5 µM (inactive) | > 100 µM (inactive) | 30.9 µM (inactive) | 34.8 µM (inactive) | 31.8 µM (inactive) | 38.6 µM (inactive) | 23.5 µM (inactive) | 37.9 µM (inactive) |
| c1ccc2c(c1)NCc1cc3ccccc3nc1O2 | > 100 µM (inactive) | > 100 µM (inactive) | > 100 µM (inactive) | 55.6 µM (inactive) | > 100 µM (inactive) | 71.6 µM (inactive) | > 100 µM (inactive) | > 100 µM (inactive) | 83 µM (inactive) | > 100 µM (inactive) | > 100 µM (inactive) | > 100 µM (inactive) | > 100 µM (inactive) | > 100 µM (inactive) | > 100 µM (inactive) | > 100 µM (inactive) | > 100 µM (inactive) | > 100 µM (inactive) | > 100 µM (inactive) | 26.9 µM (inactive) |
| Oc1c(Br)ccc2cccnc12 | 3.14 µM (inactive) | 3.04 µM (inactive) | 2.05 µM (inactive) | 0.326 µM (active) | 12.4 µM (inactive) | 5.3 µM (inactive) | 1.06 µM (active) | 4.07 µM (inactive) | 2.02 µM (inactive) | 3.46 µM (inactive) | 1.6 µM (inactive) | 2.1 µM (inactive) | 4.32 µM (inactive) | 2.79 µM (inactive) | 0.646 µM (active) | 0.834 µM (active) | 4.73 µM (inactive) | 5.06 µM (inactive) | 1.52 µM (inactive) | 1.64 µM (inactive) |
| Cc1nn(C)c2c1C(=O)N(C)CC(=O)N2C | > 100 µM (inactive) | > 100 µM (inactive) | > 100 µM (inactive) | > 100 µM (inactive) | > 100 µM (inactive) | > 100 µM (inactive) | > 100 µM (inactive) | > 100 µM (inactive) | > 100 µM (inactive) | > 100 µM (inactive) | > 100 µM (inactive) | > 100 µM (inactive) | > 100 µM (inactive) | > 100 µM (inactive) | > 100 µM (inactive) | > 100 µM (inactive) | > 100 µM (inactive) | > 100 µM (inactive) | > 100 µM (inactive) | > 100 µM (inactive) |
| CCOC(=O)c1c[nH]c2cc3c(cc2c1=O)CCS3(=O)=O.CCOC(=O)c1c[nH]c2ccc3c(c2c1=O)S(=O)(=O)CC3 | > 100 µM (inactive) | > 100 µM (inactive) | > 100 µM (inactive) | > 100 µM (inactive) | > 100 µM (inactive) | > 100 µM (inactive) | > 100 µM (inactive) | > 100 µM (inactive) | > 100 µM (inactive) | > 100 µM (inactive) | > 100 µM (inactive) | > 100 µM (inactive) | > 100 µM (inactive) | > 100 µM (inactive) | > 100 µM (inactive) | > 100 µM (inactive) | > 100 µM (inactive) | > 100 µM (inactive) | > 100 µM (inactive) | > 100 µM (inactive) |
| Nc1ccccc1S(=O)(=O)c1ccccc1 | > 100 µM (inactive) | > 100 µM (inactive) | > 100 µM (inactive) | > 100 µM (inactive) | > 100 µM (inactive) | > 100 µM (inactive) | > 100 µM (inactive) | > 100 µM (inactive) | > 100 µM (inactive) | > 100 µM (inactive) | > 100 µM (inactive) | > 100 µM (inactive) | > 100 µM (inactive) | > 100 µM (inactive) | > 100 µM (inactive) | > 100 µM (inactive) | > 100 µM (inactive) | > 100 µM (inactive) | > 100 µM (inactive) | > 100 µM (inactive) |
| CC(C)CC(N)C(=O)NC(CNC(CCC(N)=O)C(=O)NC(CC(C)C)C(=O)NC(CC(C)C)C(=O)O)Cc1ccc2ccccc2c1 (stereo not given) | > 10 µM (inactive) | > 10 µM (inactive) | > 10 µM (inactive) | > 10 µM (inactive) | > 10 µM (inactive) | > 10 µM (inactive) | > 10 µM (inactive) | > 10 µM (inactive) | > 10 µM (inactive) | > 10 µM (inactive) | > 10 µM (inactive) | > 10 µM (inactive) | > 10 µM (inactive) | > 10 µM (inactive) | > 10 µM (inactive) | > 10 µM (inactive) | > 10 µM (inactive) | > 10 µM (inactive) | > 10 µM (inactive) | > 10 µM (inactive) |
